Test results taken from article PMC7007292 (Oncotarget, 2020).
Entries after “also recorded” stand apart in the source; their conditions may differ. Like-named read-outs stand apart in the source and are kept apart here.

Assays:
AGP-01 cells [1] = assay: Morphological analysis; format: cell-based, human; settings: 100 nM, 500 nM, 1 μM, 24 h
AGP-01 cells [2] = assay: Growth inhibition assay (resazurin); settings: 2D culture, 72 h, value (± SD)
AGP-01 cells [3] = assay: Microfilament analysis (cortical actin, confocal); format: cell-based, human
Procedure: Between each step described above, cells were washed three times with PBS for 5 min at 37°C. […] Images were capture by a laser confocal microscope at 40× (Zeiss, Germany). Image analysis of actin fibers was performed using Acapella (Perkin Elmer). Nuclei were automatically segmented using DAPI channel. Cells were segmented using both DAPI and Actin channels. Dense actin was defined by thresholding to find pixels that were much brighter than their surrounding in the membrane region. The area of dense actin in the membrane region was calculated and normalized to the cell area. Similarly the actin intensity in the membrane region was measured and normalized to the cell area.

kinase targets = settings: cited from earlier work
[4] = tested on: peritoneal metastasis of GC; settings: xenograft mouse model; oral and intraperitoneal administration; cited from earlier work
kinases = settings: beside BCR-ABL and SRC; cited from earlier work
AGP-01 cells [5] = assay: Cell invasion assay (ECM coated inserts); format: cell-based, human; settings: 100 nM, 500 nM, 1 μM, 24 h, legend 8 h
Procedure: Cell migration assays were performed using an IncuCyte® life-cell analysis system (Essen Bioscience, USA). […] Images were captured every 2 h for 48 h and evaluated using the InCucyte® software where the wound width was calculated and expressed as percent relative to the control (0.1% DMSO). Cell invasion was assessed by using the cell invasion assay. A 24-well tissue culture plate (Corning) with cell culture inserts which contained an 8 μm pore size polycarbonate membrane was used. […] After 8 h incubation, cells were removed from the inner surface of the insert using a cotton-tipped swab. […] The number of migrating cells per insert was captured by the Operetta System (Perkin Elmer) and counted automatically.

ACP-02 cells = assay: Growth inhibition assay (resazurin); format: cell-based, human; settings: 2D culture, 72 h, value (± SD)
[6] = tested on: GC cell lines (AGP-01, ACP-02, ACP-03); assay: Growth inhibition assay, all GC cell lines; format: cell-based, human
Procedure: All cell lines were cultured in Dulbecco’s Modified Eagle Medium, high Glucose (4.5 g/L), with Sodium Pyruvate and L-glutamin] (DMEM, Lonza, UK), containing 10% foetal bovine serum (FBS) (Invitrogen, USA), 1% antibiotic with 100 IU/ml Penicillin and 100 ug/ml Streptomycin (Invitrogen, USA). The culture medium was changed 2 to 3 times a week and cells were passaged using trypsin/EDTA (Invitrogen, USA).
Resarzurin was used for growth inhibition assays. Briefly, cells (300/well) were plated in 384-well flat-bottomed plates and cultured for 24 h. […] All the following in vitro experiments were performed on metastatic AGP-01 cells.

ACP-03 cells = assay: Growth inhibition assay (resazurin); format: cell-based, human; settings: 2D culture, 72 h, value (± SD)
GC patients = settings: cited from earlier work; for beneficial effects in clinical trials: NCT00215995, NCT00595985, NCT00725712

Row | Compound | IC50 (AGP-01 cells [2]) | IC50 (ACP-02 cells; Homo sapiens) | IC50 (ACP-03 cells; Homo sapiens) | also measured
1 | Cc1nc(Nc2ncc(C(=O)Nc3c(C)cccc3Cl)s2)cc(N2CCN(CCO)CC2)n1 [Dasatinib] | 0.35 µM | 1.02 µM | – | morphology of the cells (AGP-01 cells [1]): morphological changes; cortical actin in the membrane region (AGP-01 cells [3]; confocal imaging, 100 nM, 500 nM, 1 μM, 24 h): significant increase; area of cortical actin (AGP-01 cells [3]; single cells, p-value < 0.01): significantly higher; intensity of cortical actin (AGP-01 cells [3]; single cells, p-value < 0.01): significantly higher; number of targets identified (kinase targets): 72; peritoneal metastasis of GC [4]: suppressing peritoneal metastasis of GC; number of additional kinases identified as targets (kinases): ~40; cell invasion (AGP-01 cells [5]): significantly inhibited; also recorded: Inhibition of cell invasion and migration; IC50 ([6]; 72 h incubation): 1 µM
2 | CO[C@H]1C[C@@H]2CC[C@@H](C)[C@@](O)(O2)C(=O)C(=O)N2CCCC[C@H]2C(=O)O[C@H]([C@H](C)C[C@@H]2CC[C@@H](OCCO)[C@H](OC)C2)CC(=O)[C@H](C)/C=C(\C)[C@@H](O)[C@@H](OC)C(=O)[C@H](C)C[C@H](C)/C=C/C=C/C=C/1C [Everolimus] | > 20 µM | > 20 µM | > 20 µM | –
3 | COc1cc2c(Oc3ccc(NC(=O)C4(C(=O)Nc5ccc(F)cc5)CC4)cc3F)ccnc2cc1OCCCN1CCOCC1 [GSK1363089] | – | – | – | beneficial effects in clinical trials (GC patients): failed to show beneficial effects
4 | C=CCN(/C=C1/C(=O)O[C@H](COC)[C@@]2(C)C1=C(O)C(=O)C1=C2[C@H](OC(C)=O)C[C@]2(C)C(=O)CC[C@@H]12)CC=C [PX-866] | > 20 µM | – | – | IC50 (ACP-02 cells): > 20 µM; IC50 (ACP-03 cells): > 20 µM
5 | Cc1ccc(Nc2nccc(N(C)c3ccc4c(C)n(C)nc4c3)n2)cc1S(N)(=O)=O [Pazopanib] | > 20 µM | > 20 µM | > 20 µM | –
6 | CC[C@@H]1/C=C(\C)C[C@H](C)C[C@H](OC)[C@H]2O[C@@](O)(C(=O)C(=O)N3CCCC[C@H]3C(=O)O[C@H](/C(C)=C/[C@@H]3CC[C@H](Cl)[C@H](OC)C3)[C@H](C)[C@@H](O)CC1=O)[C@H](C)C[C@@H]2OC [Pimecrolimus] | > 20 µM | > 20 µM | > 20 µM | –
7 | N#CC[C@H](C1CCCC1)n1cc(-c2ncnc3[nH]ccc23)cn1 [Ruxolitinib] | > 20 µM | > 20 µM | > 20 µM | –
8 | CN1CCN(CCOc2cc(OC3CCOCC3)c3c(Nc4c(Cl)ccc5c4OCO5)ncnc3c2)CC1 [Saracatinib] | 2.38 µM | 5.94 µM | 2.8 µM | –
9 | CCN(CC)CCNC(=O)c1c(C)[nH]c(/C=C2\C(=O)Nc3ccc(F)cc32)c1C [Sunitinib] | 1.53 µM | – | 1.97 µM | beneficial effects in clinical trials (GC patients): failed to show beneficial effects
10 | COc1cc2nccc(Oc3ccc(NC(=O)Nc4cc(C)on4)c(Cl)c3)c2cc1OC [Tivozanib] | > 20 µM | > 20 µM | > 20 µM | –
11 | COc1cc2c(Nc3ccc(Br)cc3F)ncnc2cc1OCC1CCN(C)CC1 [Vandetanib] | > 20 µM | > 20 µM | > 20 µM | –
12 | CCCS(=O)(=O)Nc1ccc(F)c(C(=O)c2c[nH]c3ncc(-c4ccc(Cl)cc4)cc23)c1F [Vemurafenib] | > 20 µM | > 20 µM | > 20 µM | –
13 | N#CC1(c2ccc(NC(=O)c3cccnc3NCc3ccncc3)cc2)CCCC1 [apatinib] | – | – | – | median OS and progression free survival (GC patients; third line therapy for GC): significant benefit
14 | Cc1ccc(NC(=O)c2ccc(CN3CCN(C)CC3)cc2)cc1Nc1nccc(-c2cccnc2)n1 [imatinib] | – | – | – | antiproliferative effect [6]: no proliferation inhibition was observed
15 | CS(=O)(=O)CCNCc1ccc(-c2ccc3ncnc(Nc4ccc(OCc5cccc(F)c5)c(Cl)c4)c3c2)o1 [lapatinib] | – | – | – | beneficial effects in clinical trials (GC patients): failed to show beneficial effects
16 | Cc1cn(-c2cc(NC(=O)c3ccc(C)c(Nc4nccc(-c5cccnc5)n4)c3)cc(C(F)(F)F)c2)cn1 [nilotinib] | – | – | – | antiproliferative effect ([6]; GC cell lines, 72 h incubation): no proliferation inhibition was observed
17 | ramucirumab: VEGFR2 inhibitor approved as second line treatment of GC | – | – | – | median OS (GC patients; second line, alone or with paclitaxel, local relapsed or metastatic GC): improvement on median OS
